The data set in a line: recombinant UMI read abundance after kanamycin selection (control-corrected) (log10(CPM+1)); higher = more efficient recombination; extreme values may be limits of the assay; sequences stand for … in AGTGCAGAGAAAATCGGCCAGTTTTCTCTGCCTGCAGTCCGCATGCCGTGGGACCCCTTGGGTTCTAACCTGTTGCCTAGATTTATGCAGCGGACTGCCTTTCTCCCAAAGTGATAAACCGG…AGGTTGGTTTCACT; site = the 11-nt donor. In a few lines:
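Reported values are log10(CPM+1) from a pooled Escherichia coli screen of donor and donor-binding-loop pairs for the IS621 bridge recombinase. Selection used IPTG (0.07 mM) plus kanamycin, against unselected plating, each in two replicates. Recombinant UMIs were amplified across the donor–target junction, sequenced, converted to CPM, averaged over replicates and scaled by control-derived factors.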
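Further: IS621 bridge recombinase in Escherichia coli cells against a fixed T5 target plasmid.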

“CGCCCTACATGGACCGGTTTTCCCGGTAATCCGTATTTGCT (site CGCCGTACTAG)”: the “recombinant UMI read abundance (log10)” value came out at 0.0214. The figure for “CGCCCTACATGGACCGGTTTTCCCGGTAATCCGTATTTGCT (site CGCCTTACTAG)” is 0. As for “CGCCCTCCATGGACCGGTTTTCCCGGTAATCCGTATTTGAT (site CGCCCTCCTAT)”, the “recombinant UMI read abundance (log10)” value stood at 0.51. The figure for “CGCCGTACATGGACCGGTTTTCCCGGTAATCCGTATTTGCG (site CGCCGTACTAG)” is 0; for “CGCCGTACATGGACCGGTTTTCCCGGTAATCCGTATTTGCG (site CGCCGTACTCG)” it is 1.13; for “CGCCGTACATGGACCGGTTTTCCCGGTAATCCGTATTTGCG (site CGCCGTACTGG)” it is 0. Take “CGCCGTACATGGACCGGTTTTCCCGGTAATCCGTATTTGCG (site CGCCGTACTTG)”: the “recombinant UMI read abundance (log10)” value was found to be 0.00693. For “CGCCTAGCATGGACCGGTTTTCCCGGTAATCCGTATTTGTT (site AGCCTAGCTAA)” the value was 0.00606; for “CGCCTAGCATGGACCGGTTTTCCCGGTAATCCGTATTTGTT (site CGCCTAGCTAA)”, 0. The figure for “CGCCTAGCATGGACCGGTTTTCCCGGTAATCCGTATTTGTT (site GGCCTAGCTAA)” is 0.00975; for “CGCCTAGCATGGACCGGTTTTCCCGGTAATCCGTATTTGTT (site TGCCTAGCTAA)” it is 0.00877; for “CGCGATTCATGGACCGGTTTTCCCGGTAATCCGTATTTGGA (site CGCGATTCTTC)” it is 2.31. The figure for “CGCGCGCCATGGACCGGTTTTCCCGGTAATCCGTATTTGTT (site CGCGCGCCTAA)” is 0.0124; for “CGCGGCCCATGGACCGGTTTTCCCGGTAATCCGTATTTGTT (site CACGGCCCTAA)” it is 0.167. On to “CGCGGCCCATGGACCGGTTTTCCCGGTAATCCGTATTTGTT (site CCCGGCCCTAA)”, for which the “recombinant UMI read abundance (log10)” value was found to be 0.00728.

With “CGCGGCCCATGGACCGGTTTTCCCGGTAATCCGTATTTGTT (site CGCGGCCCTAA)”, the “recombinant UMI read abundance (log10)” value amounted to 0.202. In the case of “CGCGGCCCATGGACCGGTTTTCCCGGTAATCCGTATTTGTT (site CTCGGCCCTAA)”, the “recombinant UMI read abundance (log10)” value amounted to 0.00821. Consider “CGCGGCTCATGGACCGGTTTTCCCGGTAATCCGTATTTGGC (site CGCGGCTCTGC)”, for which the “recombinant UMI read abundance (log10)” value was determined as 2.33.

For the sequence “CGCGGTCCATGGACCGGTTTTCCCGGTAATCCGTATTTGCA (site CACGGTCCTTG)”, the “recombinant UMI read abundance (log10)” value was determined as 0. For “CGCGGTCCATGGACCGGTTTTCCCGGTAATCCGTATTTGCA (site CCCGGTCCTTG)” the value was 0.3; for “CGCGGTCCATGGACCGGTTTTCCCGGTAATCCGTATTTGCA (site CGCGGTCCTTG)”, 1.12; for “CGCGGTCCATGGACCGGTTTTCCCGGTAATCCGTATTTGCA (site CTCGGTCCTTG)”, 0. The figure for “CGCTAGGCATGGACCGGTTTTCCCGGTAATCCGTATTTGAC (site CGCTAGGCTGT)” is 1.08; for “CGCTCATCATGGACCGGTTTTCCCGGTAATCCGTATTTGGT (site CGATCATCTAG)” it is 0.393. Turning to “CGCTCATCATGGACCGGTTTTCCCGGTAATCCGTATTTGGT (site CGCTCATCTAC)”, the “recombinant UMI read abundance (log10)” value was found to be 1.17. For “CGGAAGACATGGACCGGTTTTCCCGGTAATCCGTATTTGCA (site AGGAAGACTTG)” the value was 0.742; for “CGGAAGACATGGACCGGTTTTCCCGGTAATCCGTATTTGCA (site CGGAAGACTTG)”, 1.73; for “CGGAAGACATGGACCGGTTTTCCCGGTAATCCGTATTTGCA (site GGGAAGACTTG)”, 0. For “CGGAAGACATGGACCGGTTTTCCCGGTAATCCGTATTTGCA (site TGGAAGACTTG)” the value was 0.259.

In the case of “CGGAATACATGGACCGGTTTTCCCGGTAATCCGTATTTGTC (site CGGAATACTGA)”, the “recombinant UMI read abundance (log10)” value came to 1.64. The figure for “CGGAATACATGGACCGGTTTTCCCGGTAATCCGTATTTGTC (site CGGAATCCTAA)” is 0.0129; for “CGGAATCCATGGACCGGTTTTCCCGGTAATCCGTATTTGGG (site CGGAATCCTAA)” it is 0; for “CGGAATCCATGGACCGGTTTTCCCGGTAATCCGTATTTGGG (site CGGAATCCTCC)” it is 0.0126. For “CGGAATTCATGGACCGGTTTTCCCGGTAATCCGTATTTGCT (site CGGAATCCTAA)” the value was 0.00849.

For the sequence “CGGAATTCATGGACCGGTTTTCCCGGTAATCCGTATTTGCT (site CGGAATTCTAG)”, the “recombinant UMI read abundance (log10)” value was found to be 2.45.

For “CGGACATCATGGACCGGTTTTCCCGGTAATCCGTATTTGAT (site CGGACATCTAA)”, the “recombinant UMI read abundance (log10)” value came to 0.359.

Consider “CGGACATCATGGACCGGTTTTCCCGGTAATCCGTATTTGAT (site CGGACATCTAC)”, for which the “recombinant UMI read abundance (log10)” value was 0.605. For “CGGACATCATGGACCGGTTTTCCCGGTAATCCGTATTTGAT (site CGGACATCTAG)” the value was 0. With “CGGACATCATGGACCGGTTTTCCCGGTAATCCGTATTTGAT (site CGGACATCTAT)”, the “recombinant UMI read abundance (log10)” value came out at 1.84.

As to “CGGACATCATGGACCGGTTTTCCCGGTAATCCGTATTTGCC (site CGGACATCTAG)”, the “recombinant UMI read abundance (log10)” value came to 0.305. For “CGGACATCATGGACCGGTTTTCCCGGTAATCCGTATTTGCC (site CGGACATCTCG)” the value was 0.00908; for “CGGACATCATGGACCGGTTTTCCCGGTAATCCGTATTTGCC (site CGGACATCTGG)”, 2.66.

“CGGACATCATGGACCGGTTTTCCCGGTAATCCGTATTTGCC (site CGGACATCTTG)”: the “recombinant UMI read abundance (log10)” value is 0.

“CGGACATCATGGACCGGTTTTCCCGGTAATCCGTATTTGCT (site AGGACATCTAG)”: the “recombinant UMI read abundance (log10)” value was 0.695. The figure for “CGGACATCATGGACCGGTTTTCCCGGTAATCCGTATTTGCT (site CAGACATCTAG)” is 1.53; for “CGGACATCATGGACCGGTTTTCCCGGTAATCCGTATTTGCT (site CCGACATCTAG)” it is 0.954. For “CGGACATCATGGACCGGTTTTCCCGGTAATCCGTATTTGCT (site CGAACATCTAG)” the value was 1.51; for “CGGACATCATGGACCGGTTTTCCCGGTAATCCGTATTTGCT (site CGCACATCTAG)”, 0; for “CGGACATCATGGACCGGTTTTCCCGGTAATCCGTATTTGCT (site CGGAAATCTAG)”, 0. The figure for “CGGACATCATGGACCGGTTTTCCCGGTAATCCGTATTTGCT (site CGGACAACTAG)” is 0.552; for “CGGACATCATGGACCGGTTTTCCCGGTAATCCGTATTTGCT (site CGGACACCTAG)” it is 0; for “CGGACATCATGGACCGGTTTTCCCGGTAATCCGTATTTGCT (site CGGACAGCTAG)” it is 0.00346. “CGGACATCATGGACCGGTTTTCCCGGTAATCCGTATTTGCT (site CGGACATCTAA)”: the “recombinant UMI read abundance (log10)” value amounted to 0. The figure for “CGGACATCATGGACCGGTTTTCCCGGTAATCCGTATTTGCT (site CGGACATCTAC)” is 0; for “CGGACATCATGGACCGGTTTTCCCGGTAATCCGTATTTGCT (site CGGACATCTAG)” it is 2.42; for “CGGACATCATGGACCGGTTTTCCCGGTAATCCGTATTTGCT (site CGGACATCTAT)” it is 1.21. “CGGACATCATGGACCGGTTTTCCCGGTAATCCGTATTTGCT (site CGGACATCTCG)”: the “recombinant UMI read abundance (log10)” value is 0.0134.

On to “CGGACATCATGGACCGGTTTTCCCGGTAATCCGTATTTGCT (site CGGACATCTGG)”, for which the “recombinant UMI read abundance (log10)” value is 0.0128.

Turning to “CGGACATCATGGACCGGTTTTCCCGGTAATCCGTATTTGCT (site CGGACATCTTG)”, the “recombinant UMI read abundance (log10)” value stood at 0.756. The figure for “CGGACATCATGGACCGGTTTTCCCGGTAATCCGTATTTGCT (site CGGACCTCTAG)” is 0.303; for “CGGACATCATGGACCGGTTTTCCCGGTAATCCGTATTTGCT (site CGGACGTCTAG)” it is 0; for “CGGACATCATGGACCGGTTTTCCCGGTAATCCGTATTTGCT (site CGGACTTCTAG)” it is 0.255. For “CGGACATCATGGACCGGTTTTCCCGGTAATCCGTATTTGCT (site CGGAGATCTAG)” the value was 0; for “CGGACATCATGGACCGGTTTTCCCGGTAATCCGTATTTGCT (site CGGATATCTAG)”, 1.9; for “CGGACATCATGGACCGGTTTTCCCGGTAATCCGTATTTGCT (site CGGCCATCTAG)”, 0.0134. For “CGGACATCATGGACCGGTTTTCCCGGTAATCCGTATTTGCT (site CGGGCATCTAG)” the value was 0; for “CGGACATCATGGACCGGTTTTCCCGGTAATCCGTATTTGCT (site CGGTCATCTAG)”, 0.746. On to “CGGACATCATGGACCGGTTTTCCCGGTAATCCGTATTTGCT (site CGTACATCTAG)”, for which the “recombinant UMI read abundance (log10)” value was found to be 1.54.

The values are drawn from the supplement of paper PMC11208160.
